Results on three compounds are retold here after publication PMC7308271, “Discovery of a new class of orthosteric antagonists with nanomolar potency at extrasynaptic GABAA receptors” (Scientific Reports, 2020).

Read-outs that look alike come from different tables or passages of the source.

What all share (assay type): cell-based
For experiment [1], the target named is T1, human α6β2δ GABAΑ receptor (Homo sapiens, UniProt P47870+Q16445).
T1 construct: expressed in transfected cells; host or cells: δ-HEK (HEK293 Flp-In stably expressing human δ), transiently transfected with α and β 1:1
Description: FMP assay at α6β2δ GABAA receptors in HEK cells. On the procedure:
(§1) HEK293 cells were maintained in DMEM containing GlutaMAX-I, supplemented with 10% FBS and 1% penicillin-streptomycin and incubated at 37 °C and a humidity of 5% CO2. For expression of δ-containing GABAΑ receptors, a HEK293 Flp-In^ΤΜ cell line stably expressing the human GABAΑ δ-subunits (referred to as δ-HEK) was used and the γ-containing subtypes was expressed in a background HEK293 Flp-In^ΤΜ cell line stably expressing the G-protein coupled peptide receptor NPBWR2 (referred to as HEK background)[26], both positively selected for using 200 μg/mL hygromycin B. α1β2γ2 receptors were stably expressed in a HEK293 cell line maintained as above but with no selection (gift from Marianne L. Jensen, Neurosearch).
(§2) To express recombinant GABAΑ receptors human α1, α2, α3, α5, α6, β2, γ2 (pcDNA3.1/Zeo) and α4, β1 (pUNIV)[26] subunit cDNA were transiently transfected into either δ-HEK or HEK background cells. δ-HEK cells were transfected with α- and β-subunits in a 1:1 ration whereas HEK background cells were transfected with α-, β- and γ-subunits in a 1:1:2 ratio. Human BGT1 (pcDNA5/FRT)[43] was transiently transfected into the δ-HEK cell line. δ-HEK cells transfected for whole-cell patch-clamp recordings were co-transfected with green fluorescent protein (GFP) as well as α- and β-subunits in a 0.5:1:1 ratio (0.8 μg + 1.6 μg + 1.6 μg in a 6 cm dish) in order to identify transfected cells. The transfection was carried out using Polyfect as transfection reagent according to the manufactures protocol expect for using half the recommended volume of Polyfect.
(§3) The FMP assay was performed as previously described with a few modifications. […] Data was obtained as changes in fluorescence units (∆RFU) by measuring emission at 560 nm caused by excitation at 530 nm. […]
(§4) Data obtained in the FMP assay are given as relative changes in fluorescence units (ΔRFU) by subtracting the average of the baseline fluorescence signal from the peak fluorescence signal after compound addition. […]

The target in experiment [2] is T2, human α3β2γ2 GABAΑ receptor (Homo sapiens, UniProt P34903+P47870).
T2 construct: expressed in transfected cells; host or cells: HEK background (HEK293 Flp-In stably expressing NPBWR2), transient α:β:γ 1:1:2
Briefly: FMP assay at α3β2γ2 GABAA receptors in HEK cells. As to the method:
as §1, §2, §3, §4

Experiment [3] has as its target T3, human α1β2γ2 GABAΑ receptor (Homo sapiens, UniProt P14867+P47870).
T3 construct: expressed in transfected cells; host or cells: HEK293 line stably expressing α1β2γ2 (gift from Marianne L. Jensen, Neurosearch)
Briefly: FMP assay at α1β2γ2 GABAA receptors in HEK cells. On the procedure:
as §1, §2, §3, §4

Experiment [4] has as its target T4, human α2β2γ2 GABAΑ receptor (Homo sapiens, UniProt P47869+P47870).
T4 construct: expressed in transfected cells; host or cells: HEK background (HEK293 Flp-In stably expressing NPBWR2), transient α:β:γ 1:1:2
Description: FMP assay at α2β2γ2 GABAA receptors in HEK cells. As to the method:
as §1, §2, §3, §4

Where [5] appears, read: read-out: pIC50 ± SEM (converted).

T3 sequence (P14867 28-456): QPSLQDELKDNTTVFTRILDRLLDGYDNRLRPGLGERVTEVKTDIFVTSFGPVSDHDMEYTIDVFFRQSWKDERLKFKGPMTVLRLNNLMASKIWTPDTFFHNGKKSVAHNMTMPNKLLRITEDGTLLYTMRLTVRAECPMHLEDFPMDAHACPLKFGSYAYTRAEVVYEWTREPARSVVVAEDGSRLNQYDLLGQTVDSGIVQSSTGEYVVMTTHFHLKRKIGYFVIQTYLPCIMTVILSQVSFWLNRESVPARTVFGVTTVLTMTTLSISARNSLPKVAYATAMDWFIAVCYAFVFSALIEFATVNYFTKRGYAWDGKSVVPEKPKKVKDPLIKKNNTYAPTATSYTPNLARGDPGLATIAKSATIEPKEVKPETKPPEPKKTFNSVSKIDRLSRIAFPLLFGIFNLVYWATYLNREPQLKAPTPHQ
T3 sequence (P47870 25-512 limits assumed): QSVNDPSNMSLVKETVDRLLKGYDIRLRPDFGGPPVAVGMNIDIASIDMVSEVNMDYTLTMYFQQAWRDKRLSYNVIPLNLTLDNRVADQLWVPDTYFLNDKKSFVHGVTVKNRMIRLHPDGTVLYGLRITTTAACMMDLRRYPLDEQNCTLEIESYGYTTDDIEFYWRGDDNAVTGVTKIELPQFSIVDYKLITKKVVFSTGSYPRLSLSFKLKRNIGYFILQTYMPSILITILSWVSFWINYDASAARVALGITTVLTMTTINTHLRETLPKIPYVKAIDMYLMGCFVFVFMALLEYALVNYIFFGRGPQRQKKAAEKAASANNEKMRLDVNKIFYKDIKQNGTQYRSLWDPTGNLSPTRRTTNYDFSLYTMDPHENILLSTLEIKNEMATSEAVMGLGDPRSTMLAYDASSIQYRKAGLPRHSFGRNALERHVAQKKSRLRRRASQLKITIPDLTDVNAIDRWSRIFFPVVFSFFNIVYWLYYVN
T3 sequence (P18507 40-475 partner): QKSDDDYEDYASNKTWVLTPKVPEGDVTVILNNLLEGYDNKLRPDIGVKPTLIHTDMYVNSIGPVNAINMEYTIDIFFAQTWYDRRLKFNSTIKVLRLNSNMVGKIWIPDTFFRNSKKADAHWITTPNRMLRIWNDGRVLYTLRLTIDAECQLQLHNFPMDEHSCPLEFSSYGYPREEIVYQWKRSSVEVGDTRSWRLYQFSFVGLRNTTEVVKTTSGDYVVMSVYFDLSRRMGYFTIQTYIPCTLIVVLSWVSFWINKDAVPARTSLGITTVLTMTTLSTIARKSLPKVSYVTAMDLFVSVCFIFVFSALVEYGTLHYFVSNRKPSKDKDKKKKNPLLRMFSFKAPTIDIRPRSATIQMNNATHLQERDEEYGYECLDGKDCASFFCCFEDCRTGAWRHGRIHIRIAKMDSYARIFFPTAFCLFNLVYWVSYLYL
T4 sequence (P47869 29-451): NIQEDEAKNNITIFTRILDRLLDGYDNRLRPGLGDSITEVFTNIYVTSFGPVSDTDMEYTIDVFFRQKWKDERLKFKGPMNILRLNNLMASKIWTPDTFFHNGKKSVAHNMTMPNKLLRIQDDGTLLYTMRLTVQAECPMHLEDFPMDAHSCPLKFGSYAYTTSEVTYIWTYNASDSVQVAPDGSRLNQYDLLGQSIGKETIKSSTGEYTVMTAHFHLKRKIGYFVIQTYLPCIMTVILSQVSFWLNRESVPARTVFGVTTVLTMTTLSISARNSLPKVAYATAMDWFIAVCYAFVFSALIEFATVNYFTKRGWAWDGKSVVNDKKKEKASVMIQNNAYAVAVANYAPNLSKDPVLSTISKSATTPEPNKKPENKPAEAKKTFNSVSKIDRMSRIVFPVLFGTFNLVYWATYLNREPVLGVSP
T4 sequence (P47870 25-512 limits assumed): as the sequence (P47870 25-512 limits assumed) above
T4 sequence (P18507 40-475 partner): as the sequence (P18507 40-475 partner) above
T1 sequence (Q16445 20-453): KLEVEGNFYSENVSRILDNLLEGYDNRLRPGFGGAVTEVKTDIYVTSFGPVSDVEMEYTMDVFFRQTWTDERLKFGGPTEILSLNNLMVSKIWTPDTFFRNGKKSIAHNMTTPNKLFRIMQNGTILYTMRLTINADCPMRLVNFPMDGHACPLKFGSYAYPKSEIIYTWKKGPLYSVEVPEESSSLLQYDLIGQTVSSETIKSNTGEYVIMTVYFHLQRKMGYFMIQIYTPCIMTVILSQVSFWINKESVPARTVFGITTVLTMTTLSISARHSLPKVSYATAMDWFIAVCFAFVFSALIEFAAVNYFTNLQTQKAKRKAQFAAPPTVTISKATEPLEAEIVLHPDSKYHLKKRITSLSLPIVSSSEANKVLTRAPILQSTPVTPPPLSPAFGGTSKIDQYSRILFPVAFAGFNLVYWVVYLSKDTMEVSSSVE
T1 sequence (P47870 25-512 limits assumed): as the sequence (P47870 25-512 limits assumed) above
T1 sequence (O14764 25-452 partner): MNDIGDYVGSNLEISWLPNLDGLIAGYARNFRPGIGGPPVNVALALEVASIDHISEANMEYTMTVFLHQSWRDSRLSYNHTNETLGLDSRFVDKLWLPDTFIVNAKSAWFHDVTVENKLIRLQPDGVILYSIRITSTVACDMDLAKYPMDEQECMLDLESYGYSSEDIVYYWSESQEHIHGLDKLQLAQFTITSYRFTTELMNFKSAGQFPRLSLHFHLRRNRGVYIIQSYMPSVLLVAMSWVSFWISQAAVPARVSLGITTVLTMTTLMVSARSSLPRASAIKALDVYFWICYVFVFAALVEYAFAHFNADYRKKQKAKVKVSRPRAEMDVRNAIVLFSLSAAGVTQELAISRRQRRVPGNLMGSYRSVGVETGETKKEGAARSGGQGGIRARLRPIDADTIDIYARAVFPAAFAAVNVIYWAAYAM
T2 sequence (P34903 29-492): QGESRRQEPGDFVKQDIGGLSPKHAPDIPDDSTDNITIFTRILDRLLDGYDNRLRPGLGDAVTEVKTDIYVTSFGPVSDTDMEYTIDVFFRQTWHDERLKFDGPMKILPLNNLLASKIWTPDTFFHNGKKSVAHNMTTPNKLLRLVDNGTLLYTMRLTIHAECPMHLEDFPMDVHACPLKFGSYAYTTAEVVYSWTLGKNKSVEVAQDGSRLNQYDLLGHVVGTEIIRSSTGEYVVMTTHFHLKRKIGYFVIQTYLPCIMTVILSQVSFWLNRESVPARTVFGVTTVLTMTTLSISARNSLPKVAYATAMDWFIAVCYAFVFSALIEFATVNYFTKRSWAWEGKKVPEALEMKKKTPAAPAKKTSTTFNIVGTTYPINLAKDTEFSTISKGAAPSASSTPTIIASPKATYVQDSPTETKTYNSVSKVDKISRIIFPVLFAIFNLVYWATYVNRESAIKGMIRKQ
T2 sequence (P47870 25-512 limits assumed): as the sequence (P47870 25-512 limits assumed) above
T2 sequence (P18507 40-475 partner): as the sequence (P18507 40-475 partner) above

As for `NCCCC(=O)O` [GABA], the “GABA EC80” value in experiment [1] (α6β2δ, calculated from GABA potencies) is 3000 nM; in experiment [2] (α3β2γ2, calculated from GABA potencies) it was 10000 nM; in experiment [3] (α1β2γ2, calculated from GABA potencies), 8000 nM; in experiment [4] (α2β2γ2, calculated from GABA potencies) it was 10000 nM.
Regarding `O=C(Nc1cccc(C(=O)N2CCC3(CCNCC3)CC2)c1)c1cccs1` [compound 018, N-(3-(3,9-diazaspiro[5.5]undecane-3-carbonyl)phenyl)thiophene-2-carboxamide], the IC50 in experiment [1] (setting [5]) is 331 nM; in experiment [2] (read-out: IC50) it was 79 nM; in experiment [3], 790 nM; in experiment [4] (setting [5]), 324 nM.
Consider `CC(=O)Nc1cccc(C(=O)N2CCC3(CCNCC3)CC2)c1` [compound 2027, N-(3-(3,9-diazaspiro[5.5]undecane-3-carbonyl)phenyl)acetamide], for which the IC50 in experiment [1] (read-out: IC50) was 4130 nM; in experiment [2] (setting [5]) it was 288 nM; in experiment [3] it was 4960 nM; in experiment [4] (read-out: IC50) it was 2960 nM.
